According to ChEMBL document CHEMBL1148093, “Biological effects of prenylated hydroquinones: structure-activity relationship studies in antimicrobial, brine shrimp, and fish lethality assays” (J Nat Prod, 1994):
≈ marks a conversion by molar mass, not a printed value. Calls of active or inactive are those of the source. No cut-off for these calls is given here.

Tests used:
[1] = test system: Bacillus subtilis; assay: Antimicrobial activity against Bacillus subtilis DSM 347 after 18 hrs by twofold serial dilution method; format: functional
[2] = test system: Micrococcus luteus; assay: Antimicrobial activity against Micrococcus luteus DSM 348 after 18 hrs by twofold serial dilution method; format: functional
[3] = test system: Escherichia coli; assay: Antimicrobial activity against Escherichia coli DSM 1103 after 18 hrs by twofold serial dilution method; format: functional, organism-based
[4] = test system: Pseudomonas aeruginosa; assay: Antimicrobial activity against Pseudomonas aeruginosa DSM 1117 after 18 hrs by twofold serial dilution method; format: functional, organism-based
[5] = test system: Candida albicans; assay: Antimicrobial activity against Candida albicans DSM 1665 after 18 hrs by twofold serial dilution method; format: functional
[6] = test system: Artemia salina; assay: Toxicity against Artemia salina after 24 hrs; details: in vivo
[7] = test system: Gambusia affinis; assay: Toxicity against Gambusia affinis; details: in vivo

Row | Compound | MIC [1] | MIC [2] | Activity [3] | Activity [4] | MIC ([5]; DSM 1665, 18 h) [µg/mL] | MIC ([1]; DSM 347, 18 h) [µg/mL] | MIC ([2]; DSM 348, 18 h) [µg/mL] | LC50 [6] [ppm] | LC50 [7] [ppm] | MIC [5]
1 | GENTAMICIN | 0.78 µg/mL | 1.56 µg/mL | inactive | inactive | – | – | – | – | – | –
2 | CC(C)=CCc1cc(O)ccc1O [PRENYLHYDROQUINONE] | – | – | inactive | inactive | > 50 | > 50 | 25 (≈ 140 µM) | 0.54 | 22.2 | –
3 | CC(C)=CCC/C(C)=C/Cc1cc(O)ccc1O [GEROQUINOL] | – | – | inactive | inactive | 25 (≈ 101 µM) | 6.25 (≈ 25.4 µM) | 12.5 (≈ 50.7 µM) | 0.01 | 4.6 | –
4 | CC(C)=CCC/C(C)=C/CC/C(C)=C/CC/C(C)=C/CC/C(C)=C/CC/C(C)=C/Cc1cc(O)ccc1O | inactive | inactive | inactive | inactive | – | – | – | 0.63 | > 100 | inactive
5 | CC(C)CCCC(C)CCCC(C)CCCC(C)CCCC(C)CCCC(C)CCCC(C)CCCC(C)CCc1cc(O)ccc1O (configuration not stated) | inactive | inactive | inactive | inactive | – | – | – | > 10 | > 100 | inactive
6 | CC(C)=CCC1=CC(=O)C=CC1=O | – | – | inactive | inactive | > 50 | 25 (≈ 142 µM) | 25 (≈ 142 µM) | 0.19 | 1.4 | –
7 | CC(C)CCCC(C)CCCC(C)CCCC(C)CCc1cc(O)ccc1O (configuration not stated) | inactive | inactive | inactive | inactive | – | – | – | 0.02 | 43.6 | inactive
8 | CC(C)=CCC/C(C)=C/CC/C(C)=C/CC/C(C)=C/CC/C(C)=C/CC/C(C)=C/CC/C(C)=C/CC/C(C)=C/CC1=CC(=O)C=CC1=O | inactive | inactive | inactive | inactive | – | – | – | 1.45 | > 100 | inactive
9 | CC(C)CCCC(C)CCCC(C)CCCC(C)CCCC(C)CCCC(C)CCCC(C)CCc1cc(O)ccc1O (configuration not stated) | inactive | inactive | inactive | inactive | – | – | – | > 10 | > 100 | inactive
10 | CC(C)CCCC(C)CCc1cc(O)ccc1O (configuration not stated) | – | – | inactive | inactive | – | 6.25 (≈ 25 µM) | 6.25 (≈ 25 µM) | 0.001 | 0.15 | inactive
11 | CC(C)=CCC/C(C)=C/CC1=CC(=O)C=CC1=O | – | – | inactive | inactive | 25 (≈ 102 µM) | 12.5 (≈ 51.2 µM) | 12.5 (≈ 51.2 µM) | 0.05 | 0.2 | –
12 | CC(C)=CCC/C(C)=C/CC/C(C)=C/CC/C(C)=C/CC/C(C)=C/CC/C(C)=C/CC/C(C)=C/Cc1cc(O)ccc1O | inactive | inactive | inactive | inactive | – | – | – | 0.91 | > 100 | inactive
13 | Cc1cc(O)ccc1O [METHYLHYDROQUINONE] | – | – | inactive | inactive | > 50 | 25 (≈ 201 µM) | > 50 | > 10 | 38.5 | –
14 | Clc1ccc(COC(Cn2ccnc2)c2ccc(Cl)cc2Cl)c(Cl)c1 (configuration not stated) [MICONAZOLE] | – | – | inactive | inactive | 1.56 (≈ 3.75 µM) | – | – | – | – | –
15 | CC(C)=CCC/C(C)=C/CC/C(C)=C/CC/C(C)=C/CC/C(C)=C/CC/C(C)=C/CC/C(C)=C/CC/C(C)=C/Cc1cc(O)ccc1O | inactive | inactive | inactive | inactive | – | – | – | 0.98 | > 100 | inactive
16 | CC(C)CCc1cc(O)ccc1O | – | – | inactive | inactive | > 50 | 12.5 (≈ 69.3 µM) | 6.25 (≈ 34.7 µM) | 0.29 | 3.3 | –
17 | Oc1ccc(O)cc1 [HYDROQUINONE] | – | – | inactive | inactive | – | > 50 | > 50 | 0.35 | 21.5 | inactive
18 | C=C(C)[C@H]1Cc2c(ccc3c2O[C@@H]2COc4cc(OC)c(OC)cc4[C@@H]2C3=O)O1 [ROTENONE] | – | – | inactive | inactive | – | – | – | – | 0.03 | –
19 | CC(C)=CCC/C(C)=C/CC/C(C)=C/CC/C(C)=C/CC/C(C)=C/CC/C(C)=C/CC1=CC(=O)C=CC1=O | inactive | inactive | inactive | inactive | – | – | – | – | – | inactive
20 | CC(C)CCCC(C)CCCC(C)CCc1cc(O)ccc1O (configuration not stated) | – | – | inactive | inactive | – | > 50 | > 50 | 0.02 | 21.3 | inactive
21 | CC(C)=CCC/C(C)=C/CC/C(C)=C/CC/C(C)=C/CC/C(C)=C/CC/C(C)=C/CC/C(C)=C/CC1=CC(=O)C=CC1=O | inactive | inactive | inactive | inactive | – | – | – | 1.26 | > 100 | inactive
22 | CC(C)CCCC(C)CCCC(C)CCCC(C)CCCC(C)CCCC(C)CCc1cc(O)ccc1O (configuration not stated) | inactive | inactive | inactive | inactive | – | – | – | > 10 | > 100 | inactive
23 | CC1=CC(=O)C=CC1=O [Cresoquinone] | – | – | inactive | inactive | > 50 | 25 (≈ 205 µM) | > 50 | 1.06 | 5.4 | –
24 | CC1=CCC[C@H]2[C@](C)(Cc3cc(O)ccc3O)[C@@H](C)CC[C@]12C [AVAROL] | – | – | inactive | inactive | – | > 50 | > 50 | 0.18 | 4.6 | inactive
25 | CC(C)=CCC/C(C)=C/CC/C(C)=C/Cc1cc(O)ccc1O | – | – | inactive | inactive | – | 1.56 (≈ 4.96 µM) | 12.5 (≈ 39.7 µM) | 0.05 | 3.3 | inactive
26 | O=C1C=CC(=O)C=C1 [BENZOQUINONE] | – | – | inactive | inactive | 25 (≈ 231 µM) | > 50 | > 50 | – | – | –
